In patent US20240116985A1, “STAPLED PEPTIDES AND METHODS THEREOF” (priority 2020, published 2024) one finds IC50 data, which are given here for 13 molecules.

Assay [1] has as its target T1, beta-catenin/TCF4 engagement (Homo sapiens, UniProt P35222).
T1 construct: expressed in transfected cells; host or cells: HEK293
T1 sequence (P35222 1-781): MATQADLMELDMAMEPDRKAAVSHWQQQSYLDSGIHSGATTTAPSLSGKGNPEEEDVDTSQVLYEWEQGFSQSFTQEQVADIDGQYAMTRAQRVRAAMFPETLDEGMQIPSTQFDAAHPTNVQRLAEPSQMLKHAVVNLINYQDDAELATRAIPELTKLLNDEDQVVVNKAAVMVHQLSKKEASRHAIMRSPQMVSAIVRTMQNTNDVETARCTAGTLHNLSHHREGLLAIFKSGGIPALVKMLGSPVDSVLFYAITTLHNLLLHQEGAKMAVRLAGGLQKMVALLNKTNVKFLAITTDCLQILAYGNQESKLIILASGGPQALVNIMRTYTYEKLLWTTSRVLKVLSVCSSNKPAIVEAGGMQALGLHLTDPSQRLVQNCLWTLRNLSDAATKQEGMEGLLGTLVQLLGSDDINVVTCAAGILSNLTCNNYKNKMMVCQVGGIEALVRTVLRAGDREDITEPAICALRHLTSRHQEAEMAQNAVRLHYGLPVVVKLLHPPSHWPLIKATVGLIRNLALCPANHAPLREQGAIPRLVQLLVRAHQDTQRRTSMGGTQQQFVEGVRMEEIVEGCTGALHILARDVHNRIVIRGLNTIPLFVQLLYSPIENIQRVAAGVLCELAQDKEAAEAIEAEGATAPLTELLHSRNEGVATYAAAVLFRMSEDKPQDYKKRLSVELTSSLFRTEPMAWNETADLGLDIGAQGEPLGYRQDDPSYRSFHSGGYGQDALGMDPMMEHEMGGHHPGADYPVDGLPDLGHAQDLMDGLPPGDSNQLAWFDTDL
Briefly: Nano-BRET target engagement assay (B-cat-Halo & TCF4-Luc in HEK293 cells). The class given is cell-based. Particulars: absolute IC50; read-out: NanoBRET Abs IC50. On the technique in general: In BRET a luciferase serves as donor, and the signal depends on an acceptor being close.

Assay [2] has as its target T2, full-length beta-Catenin (Uniprot ID P35222) (Homo sapiens, UniProt P35222).
T2 construct: 10 nM full-length beta-Catenin (Uniprot ID P35222)
T2 sequence (P35222 1-781): T1 sequence (P35222 1-781)
Briefly: Fluorescence polarization IC50 (beta-catenin / 5FAM-TCF4 10-53 competition). The class given is binding. Conditions: fluorescence polarization; read-out: beta-Catenin FP IC50. A general note: Fluorescence polarisation rises when a labelled molecule tumbles more slowly, as on binding a larger partner.

A value given as a limit tells only on which side of the number the result lay.

Regarding `CC(=O)N1CCC[C@]12CC=CCCCC1(CCCC=CCCCOC(=O)N3CC[C@@](C(=O)N[C@@H](Cc4ccccc4C(F)(F)F)C(=O)N[C@@H](Cc4csc5ccccc45)C(=O)N[C@@H](CC(=O)N4CCOCC4)C(N)=O)(C3)NC(=O)[C@H](CC(C)C)NC(=O)[C@H](Cc3ccccc3)NC(=O)[C@H](C)NC(=O)[C@H](C)NC(=O)[C@H](Cc3cccc(C(=O)O)c3)NC(=O)[C@H](CC(=O)O)NC1=O)NC(=O)[C@H](CC(C)(C)C)NC(=O)[C@H](CC(=O)O)NC2=O` (stereo partly drawn) [I-1614, Ac-PL3-Asp-Npg-B5-Asp-3COOHF-Ala-Ala-Phe-Leu-PyrS2-2F3MeF-BztA-MorphAsn-NH2], the IC50 (as a rule, the concentration needed to halve the response being measured) in assay [1] was found to be 6400 nM; in assay [2], 15 nM.
The like results for `CC(=O)N1CCC[C@]12CC=CCCCC1(CCCC=CCCCOC(=O)N3CC[C@@](C(=O)N[C@@H](Cc4ccccc4Cl)C(=O)N[C@@H](Cc4csc5ccccc45)C(=O)N[C@@H](CCCCNC(C)C)C(N)=O)(C3)NC(=O)[C@H]([C@@H](C)O)NC(=O)[C@H](Cc3ccccc3)NC(=O)[C@H](C)NC(=O)[C@H](C)NC(=O)[C@H](CN(CC(=O)O)CC(F)(F)F)NC(=O)[C@H](CC(=O)O)NC1=O)NC(=O)[C@H](CC(C)(C)C)NC(=O)[C@H](CC(=O)O)NC2=O` (stereo partly drawn) [I-1615, Ac-PL3-Asp-Npg-B5-Asp-TfeGA-Ala-Ala-Phe-Thr-PyrS2-2C1F-BztA-iPrLys-NH2] were, in that order, 8000 nM and 9 nM.
The like results for `CCN(CC(=O)O)C[C@@H]1NC(=O)[C@H](CC(=O)O)NC(=O)C2(CCCC=CCCCOC(=O)N3CC[C@@](C(=O)N[C@@H](Cc4ccccc4Cl)C(=O)N[C@@H](Cc4csc5ccccc45)C(=O)N[C@@H](CCC(N)=O)C(N)=O)(C3)NC(=O)[C@H](CC(N)=O)NC(=O)[C@H](Cc3ccccc3)NC(=O)[C@H](C)NC(=O)[C@H](C)NC1=O)CCCC=CC[C@]1(CCCN1C(C)=O)C(=O)N[C@@H](CC(=O)O)C(=O)N[C@@H](CC(C)(C)C)C(=O)N2` (stereo partly drawn) [I-1622, Ac-PL3-Asp-Npg-B5-Asp-[Et]GA-Ala-Ala-Phe-Asn-PyrS2-2C1F-BztA-Gln-NH2] were, in that order, over 20000 nM and 13 nM.
The like results for `CC(=O)N1CCC[C@]12CC=CCCCC1(CCCC=CCCCCCC[C@@](C)(C(=O)N[C@@H](Cc3ccsc3)C(=O)N[C@@H](Cc3csc4ccccc34)C(=O)N[C@@H](CCC(N)=O)C(N)=O)NC(=O)[C@H](CC(N)=O)NC(=O)[C@H](Cc3ccccc3)NC(=O)[C@H](C)NC(=O)[C@H](C)NC(=O)[C@H](CN(CCC(F)(F)F)CC(=O)O)NC(=O)[C@H](CC(=O)O)NC1=O)NC(=O)[C@H](CC(C)(C)C)NC(=O)[C@H](CC(=O)O)NC2=O` (stereo partly drawn) [I-1625, Ac-PL3-Asp-Npg-B5-Asp-[Tfp]GA-Ala-Ala-Phe-Asn-S8-3Thi-BztA-Gln-NH2] were, in that order, 29300 nM and 52.5 nM.
Take `CCN(CC(=O)O)C[C@@H]1NC(=O)[C@H](CC(=O)O)NC(=O)C2(CCCC=CCCCCCC[C@@](C)(C(=O)N[C@@H](Cc3ccsc3)C(=O)N[C@@H](Cc3csc4ccccc34)C(=O)N[C@@H](CCC(N)=O)C(N)=O)NC(=O)[C@H](CC(N)=O)NC(=O)[C@H](Cc3ccccc3)NC(=O)[C@H](C)NC(=O)[C@H](C)NC1=O)CCCC=CC[C@]1(CCCN1C(C)=O)C(=O)N[C@@H](CC(=O)O)C(=O)N[C@@H](CC(C)(C)C)C(=O)N2` (stereo partly drawn) [I-1627, Ac-PL3-Asp-Npg-B5-Asp-[Et]GA-Ala-Ala-Phe-Asn-S8-3Thi-BztA-Gln-NH2]: the IC50 in assay [1] is over 20000 nM; in assay [2] it was 57 nM.
The like results for `CCN(CC(=O)O)C[C@@H]1NC(=O)[C@H](CC(=O)O)NC(=O)C2(CCCC=CCCCCCC[C@@](C)(C(=O)N[C@@H](Cc3ccsc3)C(=O)N[C@@H](Cc3csc4ccccc34)C(=O)N[C@@H](CCC(N)=O)C(N)=O)NC(=O)[C@H](CC(N)=O)NC(=O)[C@H](Cc3ccccc3)NC(=O)[C@H](C)NC(=O)[C@H](C)NC1=O)CCCC=CC[C@]1(CCCN1C(C)=O)C(=O)N[C@@H](CC(=O)O)C(=O)N[C@@H](CC(C)(C)C)C(=O)N2` (stereo partly drawn) [I-1628, Ac-PL3-Asp-Npg-B5-Asp-[Et]GA-Ala-Ala-Phe-Asn-S8-3Thi-BztA-Gln-NH2] were, in that order, over 20000 nM and 18 nM.
The like results for `CC(=O)N1CCC[C@]12CC=CCCCC1(CCCC=CCCCOC(=O)N3CC[C@@](C(=O)N[C@@H](Cc4ccsc4)C(=O)N[C@@H](Cc4csc5ccccc45)C(=O)N[C@@H](CCC(N)=O)C(N)=O)(C3)NC(=O)[C@H](CC(C)C)NC(=O)[C@H](Cc3ccccc3)NC(=O)[C@H](C)NC(=O)[C@H](C)NC(=O)[C@H](CN(CC(=O)O)Cc3ccccc3)NC(=O)[C@H](CC(=O)O)NC1=O)NC(=O)[C@H](CC(C)(C)C)NC(=O)[C@H](CC(=O)O)NC2=O` (stereo partly drawn) [I-1630, Ac-PL3-Asp-Npg-B5-Asp-[Bn]GA-Ala-Ala-Phe-Leu-PyrS2-3Thi-BztA-Gln-NH2] were, in that order, 5000 nM and 11.5 nM.
Regarding `CC(=O)N1CCC[C@]12CC=CCCCC1(CCCC=CCCCOC(=O)N3CC[C@@](C(=O)N[C@@H](Cc4ccsc4)C(=O)N[C@@H](Cc4csc5ccccc45)C(=O)N[C@@H](CCC(N)=O)C(N)=O)(C3)NC(=O)[C@H](CC(C)C)NC(=O)[C@H](Cc3ccccc3)NC(=O)[C@H](C)NC(=O)[C@H](C)NC(=O)[C@H](CN(C)CC(=O)O)NC(=O)[C@H](CC(=O)O)NC1=O)NC(=O)[C@H](CC(C)(C)C)NC(=O)[C@H](CC(=O)O)NC2=O` (stereo partly drawn) [I-1631, Ac-PL3-Asp-Npg-B5-Asp-[Me]GA-Ala-Ala-Phe-Leu-PyrS2-3Thi-BztA-Gln-NH2], the figures for the IC50 in assay [1] and in assay [2] were 30100 nM and 10 nM, respectively.
The like results for `CC(=O)N1CCC[C@]12CC=CCCCC1(CCCC=CCCCOC(=O)N3CC[C@@](C(=O)N[C@@H](Cc4ccsc4)C(=O)N[C@@H](Cc4csc5ccccc45)C(=O)N[C@@H](CCC(N)=O)C(N)=O)(C3)NC(=O)[C@H](CC(C)C)NC(=O)[C@H](Cc3ccccc3)NC(=O)[C@H](C)NC(=O)[C@H](C)NC(=O)[C@H](CN(CCC(F)(F)F)CC(=O)O)NC(=O)[C@H](CC(=O)O)NC1=O)NC(=O)[C@H](CC(C)(C)C)NC(=O)[C@H](CC(=O)O)NC2=O` (stereo partly drawn) [I-1633, Ac-PL3-Asp-Npg-B5-Asp-[Tfp]GA-Ala-Ala-Phe-Leu-PyrS2-3Thi-BztA-Gln-NH2] were, in that order, 5200 nM and 10 nM.
The like results for `CC(=O)N1CCC[C@]12CC=CCCCC1(CCCC=CCCCOC(=O)N3CC[C@@](C(=O)N[C@@H](Cc4ccsc4)C(=O)N[C@@H](Cc4csc5ccccc45)C(=O)N[C@@H](CCC(N)=O)C(N)=O)(C3)NC(=O)[C@H](CC(N)=O)NC(=O)[C@H](Cc3ccccc3)NC(=O)[C@H](C)NC(=O)[C@H](C)NC(=O)[C@H](CN(CCCC(F)(F)F)CC(=O)O)NC(=O)[C@H](CC(=O)O)NC1=O)NC(=O)[C@H](CC(C)(C)C)NC(=O)[C@H](CC(=O)O)NC2=O` (stereo partly drawn) [I-1634, Ac-PL3-Asp-Npg-B5-Asp-[Tfb]GA-Ala-Ala-Phe-Asn-PyrS2-3Thi-BztA-Gln-NH2] were, in that order, 16500 nM and 9 nM.
The like results for `CC(=O)N1CCC[C@]12CC=CCCCC1(CCCC=CCCCOC(=O)N3CC[C@@](C(=O)N[C@@H](Cc4ccsc4)C(=O)N[C@@H](Cc4csc5ccccc45)C(=O)N[C@@H](CCC(N)=O)C(N)=O)(C3)NC(=O)[C@H](CC(N)=O)NC(=O)[C@H](Cc3ccccc3)NC(=O)[C@H](C)NC(=O)[C@H](C)NC(=O)[C@H](CN(CC(=O)O)Cc3ccccc3)NC(=O)[C@H](CC(=O)O)NC1=O)NC(=O)[C@H](CC(C)(C)C)NC(=O)[C@H](CC(=O)O)NC2=O` (stereo partly drawn) [I-1635, Ac-PL3-Asp-Npg-B5-Asp-[Bn]GA-Ala-Ala-Phe-Asn-PyrS2-3Thi-BztA-Gln-NH2] were, in that order, 20600 nM and 7 nM.
Regarding `CC(=O)N1CCC[C@]12CC=CCCCC1(CCCC=CCCCOC(=O)N3CC[C@@](C(=O)N[C@@H](Cc4ccsc4)C(=O)N[C@@H](Cc4csc5ccccc45)C(=O)N[C@@H](CCC(N)=O)C(N)=O)(C3)NC(=O)[C@H](CC(N)=O)NC(=O)[C@H](Cc3ccccc3)NC(=O)[C@H](C)NC(=O)[C@H](C)NC(=O)[C@H](CN(C)CC(=O)O)NC(=O)[C@H](CC(=O)O)NC1=O)NC(=O)[C@H](CC(C)(C)C)NC(=O)[C@H](CC(=O)O)NC2=O` (stereo partly drawn) [I-1636, Ac-PL3-Asp-Npg-B5-Asp-[Me]GA-Ala-Ala-Phe-Asn-PyrS2-3Thi-BztA-Gln-NH2], the IC50 is over 20000 nM in assay [1] and 17 nM in assay [2].
The like results for `CC(=O)N1CCC[C@]12CC=CCCCC1(CCCC=CCCCOC(=O)N3CC[C@@](C(=O)N[C@@H](Cc4ccsc4)C(=O)N[C@@H](Cc4csc5ccccc45)C(=O)N[C@@H](CCC(N)=O)C(N)=O)(C3)NC(=O)[C@H](CC(N)=O)NC(=O)[C@H](Cc3ccccc3)NC(=O)[C@H](C)NC(=O)[C@H](C)NC(=O)[C@H](CN(C)CC(=O)O)NC(=O)[C@H](CC(=O)O)NC1=O)NC(=O)[C@H](CC(C)(C)C)NC(=O)[C@H](CC(=O)O)NC2=O` (stereo partly drawn) [I-1637, Ac-PL3-Asp-Npg-B5-Asp-[Me]GA-Ala-Ala-Phe-Asn-PyrS2-3Thi-BztA-Gln-NH2] were, in that order, over 20000 nM and 11 nM.
